# Results reported in PubChem BioAssay AID1053162 (Broad Institute, 2014).
# System: HepG2 PCSK9 mRNA, RT-qPCR, 24 h
# Experiment: PCSK9 mRNA changes with sterol depletion, late-stage follow-up, mechanism study for Trib1 inducer project, cell-based, HepG2, RT-PCR, cherry-picked dose (AID 1053162)
# Settings: stronger effect = higher value
structure (smiles),measurement,value
CN1C(=O)c2cc(NC(=O)c3ccc(C(F)(F)F)cc3)ccc2OC[C@@H]2O[C@H](CC(=O)NC3Cc4ccccc4C3)CC[C@@H]21,fold induction,2.5
